Five compounds from US20090011442A1, “TB diagnostics based on mycobacterium tuberculosis excretory secretory antigens and their specific immunoglobulins” (priority 2007, published 2009) can be followed below.

For the assay, the system named is M. tb H37Ra bacilli. It counts as cell-based, Mycobacterium tuberculosis H37Ra.

In the case of `CC[C@@H](CO)NCCN[C@@H](CC)CO` [EMB, ethambutol], the “MIC (mg/l)/Resistance Ratio” value was more than 8 mg/L.
As for `NNC(=O)c1ccncc1` [INH, isoniazid], the “MIC (mg/l)/Resistance Ratio” value is more than 1 mg/L.
With `NC(=O)c1cnccn1` [PZA], the “MIC (mg/l)/Resistance Ratio” value is more than 100 mg/L.
On to `CO[C@H]1/C=C/O[C@@]2(C)Oc3c(C)c(O)c4c(O)c(c(/C=N/N5CCN(C)CC5)c(O)c4c3C2=O)NC(=O)/C(C)=C\C=C\[C@H](C)[C@H](O)[C@@H](C)[C@@H](O)[C@@H](C)[C@H](OC(C)=O)[C@@H]1C` [RMP, rifampicin], for which the “MIC (mg/l)/Resistance Ratio” value is more than 64 mg/L.
On to `[H]/N=C(/N)N[C@H]1[C@H](O)[C@@H](O)[C@H](O[C@@H]2O[C@@H](C)[C@](O)(C=O)[C@H]2O[C@@H]2O[C@@H](CO)[C@H](O)[C@@H](O)[C@@H]2NC)[C@@H](N/C(N)=N\[H])[C@@H]1O` [SM, streptomycin], for which the Resistance ratio entry was “ratio > 8”.
